Key:
Assay type in all cases: cell-based
[1] = biological target: T1, M1 muscarinic receptor (Homo sapiens, UniProt P11229); assay: Functional mobilization of intracellular calcium (FLIPR), M1-CHO cells; conditions: for Emax: 100% efficacy = maximum response obtained with the Carbachol control; for M1 Activity: M1-CHO cells, calcium mobilization (FLIPR)
T1 construct: expressed in transfected cells; host or cells: CHO (M1-CHO)
T1 sequence (P11229 1-460): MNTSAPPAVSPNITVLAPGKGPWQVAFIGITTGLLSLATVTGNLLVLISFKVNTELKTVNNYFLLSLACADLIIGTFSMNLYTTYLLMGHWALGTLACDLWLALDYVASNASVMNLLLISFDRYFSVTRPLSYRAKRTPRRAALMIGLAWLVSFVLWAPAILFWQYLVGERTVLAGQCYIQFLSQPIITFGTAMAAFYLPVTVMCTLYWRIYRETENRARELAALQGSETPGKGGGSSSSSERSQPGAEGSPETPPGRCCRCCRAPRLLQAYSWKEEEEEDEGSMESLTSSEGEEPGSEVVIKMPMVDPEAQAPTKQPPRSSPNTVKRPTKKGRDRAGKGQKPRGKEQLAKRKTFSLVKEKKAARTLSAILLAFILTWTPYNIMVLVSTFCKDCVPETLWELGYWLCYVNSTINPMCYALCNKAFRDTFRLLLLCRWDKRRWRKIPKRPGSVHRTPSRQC
In short: (§1)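 FLIPR fluorescence (ex 488, em 540 nm) recorded 60 sec after compound addition to dye-loaded CHO cells. Agonist mode: compound alone. Antagonist mode: 15 min compound pre-incubation, then carbachol at EC80, or co-application. Efficacy expressed as % of maximal carbachol response.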

[2] = biological target: T2, M2 muscarinic receptor (Homo sapiens, UniProt P08172); assay: Functional mobilization of intracellular calcium (FLIPR), M2-CHO cells; conditions: for Emax: 100% efficacy = maximum response obtained with the Carbachol control; for M2 Activity: M2-CHO cells, calcium mobilization (FLIPR)
T2 construct: expressed in transfected cells; host or cells: CHO (M2-CHO)
T2 sequence (P08172 1-466): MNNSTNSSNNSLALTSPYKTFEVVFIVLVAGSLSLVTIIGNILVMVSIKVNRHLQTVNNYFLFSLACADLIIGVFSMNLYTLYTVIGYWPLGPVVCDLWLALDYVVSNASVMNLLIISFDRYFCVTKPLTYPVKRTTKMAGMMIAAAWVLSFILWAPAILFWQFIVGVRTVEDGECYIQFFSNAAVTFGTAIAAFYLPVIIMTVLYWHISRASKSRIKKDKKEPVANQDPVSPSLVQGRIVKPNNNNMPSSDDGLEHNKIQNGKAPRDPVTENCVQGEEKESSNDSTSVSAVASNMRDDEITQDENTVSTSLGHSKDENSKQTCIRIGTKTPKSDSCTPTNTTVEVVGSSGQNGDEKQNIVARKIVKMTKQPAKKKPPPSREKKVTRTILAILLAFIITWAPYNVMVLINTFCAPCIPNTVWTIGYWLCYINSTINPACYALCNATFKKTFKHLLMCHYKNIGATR
In short: as §1

[3] = biological target: T3, M3 muscarinic receptor (Homo sapiens, UniProt P20309); assay: Functional mobilization of intracellular calcium (FLIPR), M3-CHO cells; conditions: for Emax: 100% efficacy = maximum response obtained with the Carbachol control; for M3 Activity: M3-CHO cells, calcium mobilization (FLIPR)
T3 construct: expressed in transfected cells; host or cells: CHO (M3-CHO)
In short: as §1

[4] = biological target: T4, M4 muscarinic receptor (Homo sapiens, UniProt P08173); assay: Functional mobilization of intracellular calcium (FLIPR), M4-CHO cells; conditions: for Emax: 100% efficacy = maximum response obtained with the Carbachol control; for M4 Activity: M4-CHO cells, calcium mobilization (FLIPR)
T4 construct: expressed in transfected cells; host or cells: CHO (M4-CHO)
T4 sequence (P08173 1-479): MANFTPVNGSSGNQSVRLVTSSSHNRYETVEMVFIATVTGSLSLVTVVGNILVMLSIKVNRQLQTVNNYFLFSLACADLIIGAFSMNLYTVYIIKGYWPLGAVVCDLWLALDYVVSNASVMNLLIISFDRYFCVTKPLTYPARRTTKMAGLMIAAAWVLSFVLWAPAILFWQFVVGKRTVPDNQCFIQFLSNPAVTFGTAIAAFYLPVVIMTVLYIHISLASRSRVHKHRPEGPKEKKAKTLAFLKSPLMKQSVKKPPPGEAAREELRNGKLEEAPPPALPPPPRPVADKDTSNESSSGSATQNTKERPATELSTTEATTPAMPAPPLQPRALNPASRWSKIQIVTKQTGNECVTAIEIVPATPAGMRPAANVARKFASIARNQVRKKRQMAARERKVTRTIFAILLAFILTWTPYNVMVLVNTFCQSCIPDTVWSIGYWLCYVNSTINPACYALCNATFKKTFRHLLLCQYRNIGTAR
In short: as §1

T3 sequence (P20309 whole entry): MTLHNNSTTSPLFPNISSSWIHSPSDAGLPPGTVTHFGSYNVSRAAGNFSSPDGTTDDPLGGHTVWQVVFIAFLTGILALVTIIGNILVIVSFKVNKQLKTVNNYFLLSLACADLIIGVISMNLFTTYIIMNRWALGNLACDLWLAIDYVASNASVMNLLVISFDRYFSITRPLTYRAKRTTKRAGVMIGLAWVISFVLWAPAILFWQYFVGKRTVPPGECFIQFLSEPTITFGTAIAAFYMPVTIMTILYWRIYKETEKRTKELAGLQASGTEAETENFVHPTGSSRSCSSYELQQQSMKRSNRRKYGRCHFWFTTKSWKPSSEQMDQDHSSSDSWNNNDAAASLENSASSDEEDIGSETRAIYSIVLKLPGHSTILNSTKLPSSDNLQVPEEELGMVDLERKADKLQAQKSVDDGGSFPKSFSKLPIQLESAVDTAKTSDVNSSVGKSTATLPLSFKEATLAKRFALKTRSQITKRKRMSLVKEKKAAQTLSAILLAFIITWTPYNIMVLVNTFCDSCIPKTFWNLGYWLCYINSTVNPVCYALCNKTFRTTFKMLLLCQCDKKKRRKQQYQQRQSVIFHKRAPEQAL

| Compound | Emax [1] | Emax [2] | Emax [3] | Emax [4] | M1 Activity [1] | M2 Activity [2] | M3 Activity [3] | M4 Activity [4] |
| --- | --- | --- | --- | --- | --- | --- | --- | --- |
| COc1ccc(-c2ccccc2C2CCN([C@H]3C[C@H]4CC[C@H]3C4)CC2)c(OC)c1 [Compound 139] | 25 to 100% | < 25% | < 25% | 25 to 100% | + (activity was measured to be greater than 5.0 μM) | + (activity was measured to be greater than 5.0 μM) | + (activity was measured to be greater than 5.0 μM) | ++ (activity was measured to be from 1.0 μM to 5.0 μM) |
| COc1ccc(Cl)cc1C1(OC)CCN(C[C@H]2C[C@H]3C=C[C@@H]2C3)CC1 [Compound 140, 1-(((1S,2S,4S)-bicyclo[2.2.1]hept-5-en-2-yl)methyl)-4-(5-chloro-2-methoxyphenyl)-4-methoxypiperidine] | 25 to 100% | 25 to 100% | < 25% | 25 to 100% | ++ (activity was measured to be from 1.0 μM to 5.0 μM) | ++ (activity was measured to be from 1.0 μM to 5.0 μM) | + (activity was measured to be greater than 5.0 μM) | +++ (activity was measured to be less than 1.0 μM) |
| Clc1ccc(-c2ccccc2C2CCN([C@H]3C[C@H]4CC[C@H]3C4)CC2)cc1 [Compound 142] | 25 to 100% | 25 to 100% | < 25% | 25 to 100% | + (activity was measured to be greater than 5.0 μM) | + (activity was measured to be greater than 5.0 μM) | + (activity was measured to be greater than 5.0 μM) | ++ (activity was measured to be from 1.0 μM to 5.0 μM) |
| CCOC(=O)N1CCC(CN2CCC(c3cc(-c4ccc(S(C)(=O)=O)cc4)ccc3OC)CC2)CC1 [Compound 146] | 25 to 100% | < 25% | < 25% | 25 to 100% | +++ (activity was measured to be less than 1.0 μM) | + (activity was measured to be greater than 5.0 μM) | + (activity was measured to be greater than 5.0 μM) | +++ (activity was measured to be less than 1.0 μM) |
| c1ccc(C2CCN([C@H]3C[C@H]4CC[C@H]3C4)CC2)c(OCC2CCCCO2)c1 (stereo partly shown) [Compound 147] | 25 to 100% | 25 to 100% | < 25% | 25 to 100% | ++ (activity was measured to be from 1.0 μM to 5.0 μM) | ++ (activity was measured to be from 1.0 μM to 5.0 μM) | + (activity was measured to be greater than 5.0 μM) | +++ (activity was measured to be less than 1.0 μM) |
| Cc1c(C2CCN(C3C[C@H]4CC[C@H]3C4)CC2)cccc1C(F)(F)F (stereo partly shown) [Compound 149] | 25 to 100% | < 25% | < 25% | 25 to 100% | + (activity was measured to be greater than 5.0 μM) | + (activity was measured to be greater than 5.0 μM) | + (activity was measured to be greater than 5.0 μM) | + (activity was measured to be greater than 5.0 μM) |
| COc1ccc(F)cc1C1(OC)CCN(CC2CCOCC2)CC1 [Compound 150] | 25 to 100% | < 25% | < 25% | 25 to 100% | + (activity was measured to be greater than 5.0 μM) | + (activity was measured to be greater than 5.0 μM) | + (activity was measured to be greater than 5.0 μM) | + (activity was measured to be greater than 5.0 μM) |
| COc1ccccc1C1CCN(C2CCC(C(C)(C)C)CC2)CC1 (stereo not shown) [Compound 152] | < 25% | < 25% | < 25% | < 25% | + (activity was measured to be greater than 5.0 μM) | + (activity was measured to be greater than 5.0 μM) | + (activity was measured to be greater than 5.0 μM) | + (activity was measured to be greater than 5.0 μM) |
| COc1ccccc1[C@@H]1CCN([C@@H]2C[C@H]3CC[C@H]2C3)C[C@H]1O [Compound 154] | < 25% | < 25% | < 25% | 25 to 100% | + (activity was measured to be greater than 5.0 μM) | + (activity was measured to be greater than 5.0 μM) | + (activity was measured to be greater than 5.0 μM) | + (activity was measured to be greater than 5.0 μM) |
| COc1ccccc1C1CCN(C2CCC(C(C)C)CC2)CC1 (stereo not shown) [Compound 155] | < 25% | < 25% | < 25% | < 25% | + (activity was measured to be greater than 5.0 μM) | + (activity was measured to be greater than 5.0 μM) | + (activity was measured to be greater than 5.0 μM) | + (activity was measured to be greater than 5.0 μM) |

More lines, main results first:

| Emax [1] | Emax [2] | Emax [3] | Emax [4] | Compound | M1 Activity [1] | M2 Activity [2] | M3 Activity [3] | M4 Activity [4] |
| --- | --- | --- | --- | --- | --- | --- | --- | --- |
| < 25% | < 25% | < 25% | < 25% | COc1ccccc1C1CCN(C2CC(C)(C)CC(C)(C)C2)CC1 [Compound 138] | + (activity was measured to be greater than 5.0 μM) | + (activity was measured to be greater than 5.0 μM) | + (activity was measured to be greater than 5.0 μM) | + (activity was measured to be greater than 5.0 μM) |
| < 25% | < 25% | < 25% | 25 to 100% | COc1ccc(-c2cccc(Cl)c2)cc1C1CCN([C@@H]2C[C@H]3CC[C@H]2C3)CC1 [Compound 143] | + (activity was measured to be greater than 5.0 μM) | + (activity was measured to be greater than 5.0 μM) | + (activity was measured to be greater than 5.0 μM) | + (activity was measured to be greater than 5.0 μM) |
| < 25% | < 25% | < 25% | < 25% | COc1ccc(-c2cccc(C(N)=O)c2)cc1C1CCN([C@@H]2C[C@H]3CC[C@H]2C3)CC1 [Compound 144] | + (activity was measured to be greater than 5.0 μM) | + (activity was measured to be greater than 5.0 μM) | + (activity was measured to be greater than 5.0 μM) | + (activity was measured to be greater than 5.0 μM) |
| < 25% | < 25% | < 25% | < 25% | COc1ccc(-c2cccnc2)cc1C1CCN([C@H]2C[C@H]3CC[C@H]2C3)CC1 [Compound 148] | + (activity was measured to be greater than 5.0 μM) | + (activity was measured to be greater than 5.0 μM) | + (activity was measured to be greater than 5.0 μM) | + (activity was measured to be greater than 5.0 μM) |

Reference: US7880007B2, “Bicyclic substituted phenyl piperidine modulators of muscarinic receptors” (Vertex Pharmaceuticals Incorporated, priority 2004, dated 2011)
